In patent publication US9408852B2, “Method of lowering serum uric acid levels with (S)-tofisopam” (PHARMOS CORPORATION, priority 2011, dated 2016):
“And” between values parts separate entries of the source, which are not always exact repeats. Equal entries are not always repeated.

Key:
serum uric acid [1] = test: Serum uric acid after single oral doses in male healthy volunteers (Example 2); format: in vivo, human; conditions: for Mean CFB (change from baseline) in uric acid levels: male healthy volunteers, n = 6
Method: Male healthy volunteers received 50-400 mg enantiomerically-pure (S)-tofisopam by oral administration. Mean serum uric acid values fell by 23% to 30% within 4 hours after receiving single doses (Table 1).

serum uric acid [2] = test: Serum uric acid in healthy men and postmenopausal women, single-dose and multiple-dose phases (Example 3); format: in vivo, human
Text: (§1) In another study in healthy men and postmenopausal women, the trial period included a single-dose phase (Day 1) and a multiple-dose phase (Days 2-6). […] With multiple-dose oral administration (twice a day (BID) or three times a day (TID) on days 2-6), this decrease was more pronounced.

[3] = tested on: fractional excretion of uric acid; test: Post hoc analysis of clinical trial specimens: fractional excretion of uric acid and renal function (Example 3); format: in vivo, human; conditions: 50 mg TID
Text: as §1

xanthine oxidase = xanthine oxidase (Homo sapiens, UniProt P47989); test: Xanthine oxidase inhibition; format: biochemical; conditions: unlike allopurinol
serum uric acid [4] = test: Serum uric acid in male and female patients with hyperuricemia and gout, 7 days (Example 7); format: in vivo, human; conditions: 50 mg qd Day 1 and Day 7, tid Days 2 to 6, hyperuricemia and gout
Method: The study lasted 7 days, and patients were treated with placebo or 50 mg of enantiomerically-pure (S)-tofisopam once a day (qd) on Day 1 and Day 7 of the study, and with placebo or 50 mg of enantiomerically-pure (S)-tofisopam three times a day (tid) for Days 2 to 6 of the study. […] In Table 6, days indicated with a minus sign (e.g. D-1) indicate the time point corresponding to that number of days before treatment was initiated. For example, D-14 is the time point fourteen days before treatment was initiated.

[5] = Day 1 to Day 2: Day 1 0 h + Day 2

Sequence of xanthine oxidase (P47989 whole entry, species assumed): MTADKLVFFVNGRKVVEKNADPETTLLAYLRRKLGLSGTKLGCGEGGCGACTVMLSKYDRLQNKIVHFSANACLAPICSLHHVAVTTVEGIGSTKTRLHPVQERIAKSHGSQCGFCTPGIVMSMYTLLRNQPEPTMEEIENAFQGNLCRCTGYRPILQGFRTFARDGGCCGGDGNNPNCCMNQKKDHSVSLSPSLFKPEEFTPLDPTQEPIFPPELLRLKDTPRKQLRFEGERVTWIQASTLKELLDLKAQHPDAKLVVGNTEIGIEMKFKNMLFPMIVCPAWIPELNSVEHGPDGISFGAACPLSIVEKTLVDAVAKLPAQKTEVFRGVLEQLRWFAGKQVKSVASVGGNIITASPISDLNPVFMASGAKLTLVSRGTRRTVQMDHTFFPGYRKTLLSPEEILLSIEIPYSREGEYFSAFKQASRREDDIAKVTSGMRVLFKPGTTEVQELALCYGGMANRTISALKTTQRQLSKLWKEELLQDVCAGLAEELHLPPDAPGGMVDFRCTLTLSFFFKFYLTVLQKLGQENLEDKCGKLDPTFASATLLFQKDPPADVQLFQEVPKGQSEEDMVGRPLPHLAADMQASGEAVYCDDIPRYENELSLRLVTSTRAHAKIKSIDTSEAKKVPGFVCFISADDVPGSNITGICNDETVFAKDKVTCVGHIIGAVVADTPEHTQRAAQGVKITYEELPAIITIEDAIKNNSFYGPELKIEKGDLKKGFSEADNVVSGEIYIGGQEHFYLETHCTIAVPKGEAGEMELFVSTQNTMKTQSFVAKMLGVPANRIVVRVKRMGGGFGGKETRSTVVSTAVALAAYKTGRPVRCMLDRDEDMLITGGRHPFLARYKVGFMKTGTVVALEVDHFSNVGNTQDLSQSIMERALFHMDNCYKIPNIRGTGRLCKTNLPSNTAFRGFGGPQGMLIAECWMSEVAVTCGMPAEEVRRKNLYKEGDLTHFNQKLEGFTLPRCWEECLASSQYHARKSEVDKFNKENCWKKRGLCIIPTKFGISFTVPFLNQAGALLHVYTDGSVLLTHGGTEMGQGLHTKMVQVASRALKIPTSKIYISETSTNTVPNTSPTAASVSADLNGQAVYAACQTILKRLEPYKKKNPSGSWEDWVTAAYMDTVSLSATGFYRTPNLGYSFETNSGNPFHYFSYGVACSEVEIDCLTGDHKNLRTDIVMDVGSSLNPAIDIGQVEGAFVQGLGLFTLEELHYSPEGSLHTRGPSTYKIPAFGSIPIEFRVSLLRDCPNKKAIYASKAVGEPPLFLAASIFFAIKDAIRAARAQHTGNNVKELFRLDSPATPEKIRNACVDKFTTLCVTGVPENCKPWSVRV

CC[C@@H]1C(C)=NN=C(c2ccc(OC)c(OC)c2)c2cc(OC)c(OC)cc21 [(S)-tofisopam]
Mean CFB (change from baseline) in uric acid levels (serum uric acid [1]; single oral dose 50 mg, 4 hours after dose): −23% | Mean CFB (change from baseline) in uric acid levels (serum uric acid [1]; single oral dose 50 mg, 24 hours after dose): −25% | Mean CFB (change from baseline) in uric acid levels (serum uric acid [1]; single oral dose 50 mg, 48 hours after dose): −24% | Mean CFB (change from baseline) in uric acid levels (serum uric acid [1]; single oral dose 100 mg, 4 hours after dose): −25% | Mean CFB (change from baseline) in uric acid levels (serum uric acid [1]; single oral dose 100 mg, 24 hours after dose): −28% | Mean CFB (change from baseline) in uric acid levels (serum uric acid [1]; single oral dose 100 mg, 48 hours after dose): −29% | Mean CFB (change from baseline) in uric acid levels (serum uric acid [1]; single oral dose 200 mg, 4 hours after dose): −29% | Mean CFB (change from baseline) in uric acid levels (serum uric acid [1]; single oral dose 200 mg, 24 hours after dose): −36% | Mean CFB (change from baseline) in uric acid levels (serum uric acid [1]; single oral dose 200 mg, 48 hours after dose): −37% | Mean CFB (change from baseline) in uric acid levels (serum uric acid [1]; single oral dose 300 mg, 4 hours after dose): −30% | Mean CFB (change from baseline) in uric acid levels (serum uric acid [1]; single oral dose 300 mg, 24 hours after dose): −48% | Mean CFB (change from baseline) in uric acid levels (serum uric acid [1]; single oral dose 300 mg, 48 hours after dose): −49% | Mean CFB (change from baseline) in uric acid levels (serum uric acid [1]; single oral dose 400 mg, 4 hours after dose): −27% | Mean CFB (change from baseline) in uric acid levels (serum uric acid [1]; single oral dose 400 mg, 24 hours after dose): −48% | Mean CFB (change from baseline) in uric acid levels (serum uric acid [1]; single oral dose 400 mg, 48 hours after dose): −45% | Time course of uric acid levels after single dose (serum uric acid [1]; single oral doses 50-400 mg, 4, 24 and 48 hours): decreased further up to the 24-hour timepoint, with no further decrease at 48 hours | Dose relation of decreases in uric acid levels (serum uric acid [1]; single oral doses 50-400 mg, slightly lower decreases at 400 mg): dose-related up to the 300 mg dose | Change from Baseline serum uric acid (serum uric acid [2]; 50 mg TID (single dose Day 1), Postmenopausal women, Day 2 AM): −27% | Change from Baseline serum uric acid (serum uric acid [2]; 50 mg TID (single dose Day 1), Postmenopausal women, Day 4 AM): −58% | Change from Baseline serum uric acid (serum uric acid [2]; 50 mg TID (single dose Day 1), Postmenopausal women, Day 7 AM): −65% | Change from Baseline serum uric acid (serum uric acid [2]; 50 mg TID (single dose Day 1), Young men, Day 2 AM): −19% | Change from Baseline serum uric acid (serum uric acid [2]; 50 mg TID (single dose Day 1), Young men, Day 4 AM): −63% | Change from Baseline serum uric acid (serum uric acid [2]; 50 mg TID (single dose Day 1), Young men, Day 7 AM): −59% | Change from Baseline serum uric acid (serum uric acid [2]; 150 mg BID (single dose Day 1), Postmenopausal women, Day 2 AM): −48% | Change from Baseline serum uric acid (serum uric acid [2]; 150 mg BID (single dose Day 1), Postmenopausal women, Day 4 AM): −76% | Change from Baseline serum uric acid (serum uric acid [2]; 150 mg BID (single dose Day 1), Postmenopausal women, Day 7 AM): −71% | Change from Baseline serum uric acid (serum uric acid [2]; 150 mg BID (single dose Day 1), Young men, Day 2 AM): −31% | Change from Baseline serum uric acid (serum uric acid [2]; 150 mg BID (single dose Day 1), Young men, Day 4 AM): −72% | Change from Baseline serum uric acid (serum uric acid [2]; 150 mg BID (single dose Day 1), Young men, Day 7 AM): −72% | Uric acid levels after a single oral dose (serum uric acid [2]; 24 hours after single dose of 50 mg or 150 mg (Day 1), men and women): Decreased | Reductions from baseline in uric acid (serum uric acid [2]; by the morning of Day 4, male and female subjects, 50 mg TID or 150 mg BID): > 50% | Effect on other common parameters of renal function [3]: no measurable effect | Fractional excretion of uric acid [3]: increases | Renal injury [3]: no sign of renal injury | Inhibition of xanthine oxidase (xanthine oxidase): does not inhibit | Percent change in serum uric acid, individual patients (P# 1-13) (serum uric acid [4]; Day 1 6 h (Day 1 0 h = 0.0)): −12.0% and 4.1% and −4.3% and −8.0% and −12.5% and −8.1% and −13.9% and −8.2% and −5.6% | Percent change in serum uric acid, mean (M) of 13 patients (serum uric acid [4]; Day 1 6 h (Day 1 0 h = 0.0)): −6.9% | Percent change in serum uric acid, individual patients (P# 1-13) (serum uric acid [4]; [5]): −10.7% and −9.6% and −4.3% and −7.3% and −8.9% and −8.1% and −12.0% and −2.6% and −3.5% | Percent change in serum uric acid, mean (M) of 13 patients (serum uric acid [4]; [5]): −6.8% | Percent change in serum uric acid, individual patients (P# 1-13) (serum uric acid [4]; Day 2 (Day 1 0 h = 0.0)): −21.3% and −19.2% and −8.6% and −14.7% and −17.7% and −16.2% and −24.1% and −5.2% and −7.0% | Percent change in serum uric acid, mean (M) of 13 patients (serum uric acid [4]; Day 2 (Day 1 0 h = 0.0)): −13.6% | Percent change in serum uric acid, individual patients (P# 1-13) (serum uric acid [4]; Day 3 (Day 1 0 h = 0.0)): −32.0% and −43.8% and −14.3% and −30.7% and −36.5% and −18.9% and −45.6% and −12.4% and −16.9% and −9.6% | Percent change in serum uric acid, mean (M) of 13 patients (serum uric acid [4]; Day 3 (Day 1 0 h = 0.0)): −26.6% | Percent change in serum uric acid, individual patients (P# 1-13) (serum uric acid [4]; Day 4 (Day 1 0 h = 0.0)): −38.7% and −54.8% and −27.1% and −42.7% and −43.8% and −37.8% and −54.4% and −59.8% and −35.2% | Percent change in serum uric acid, mean (M) of 13 patients (serum uric acid [4]; Day 4 (Day 1 0 h = 0.0)): −41.8% | Percent change in serum uric acid, individual patients (P# 1-13) (serum uric acid [4]; Day 5 (Day 1 0 h = 0.0)): −48.0% and −52.1% and −40.0% and −36.0% and −45.8% and −33.8% and −50.6% and −25.8% and −39.4% | Percent change in serum uric acid, mean (M) of 13 patients (serum uric acid [4]; Day 5 (Day 1 0 h = 0.0)): −41.1% | Percent change in serum uric acid, individual patients (P# 1-13) (serum uric acid [4]; Day 6 (Day 1 0 h = 0.0)): −40.0% and −53.4% and −31.4% and −64.0% and −45.8% and −31.1% and −50.6% and −28.9% and −39.4% | Percent change in serum uric acid, mean (M) of 13 patients (serum uric acid [4]; Day 6 (Day 1 0 h = 0.0)): −43.1%
